Usually Ki stands for the equilibrium dissociation constant of an inhibitor or competing ligand from its target.

The values below come from article PMC5814047, “Peptidic inhibitors of insulin-degrading enzyme with potential for dermatological applications discovered via phage display” (PLoS ONE, 2018).

For assay [1], the target named is T1, IDE (Homo sapiens, UniProt P14735).
T1 construct: made in house; host or cells: bacteria
T1 sequence (P14735 1-1019): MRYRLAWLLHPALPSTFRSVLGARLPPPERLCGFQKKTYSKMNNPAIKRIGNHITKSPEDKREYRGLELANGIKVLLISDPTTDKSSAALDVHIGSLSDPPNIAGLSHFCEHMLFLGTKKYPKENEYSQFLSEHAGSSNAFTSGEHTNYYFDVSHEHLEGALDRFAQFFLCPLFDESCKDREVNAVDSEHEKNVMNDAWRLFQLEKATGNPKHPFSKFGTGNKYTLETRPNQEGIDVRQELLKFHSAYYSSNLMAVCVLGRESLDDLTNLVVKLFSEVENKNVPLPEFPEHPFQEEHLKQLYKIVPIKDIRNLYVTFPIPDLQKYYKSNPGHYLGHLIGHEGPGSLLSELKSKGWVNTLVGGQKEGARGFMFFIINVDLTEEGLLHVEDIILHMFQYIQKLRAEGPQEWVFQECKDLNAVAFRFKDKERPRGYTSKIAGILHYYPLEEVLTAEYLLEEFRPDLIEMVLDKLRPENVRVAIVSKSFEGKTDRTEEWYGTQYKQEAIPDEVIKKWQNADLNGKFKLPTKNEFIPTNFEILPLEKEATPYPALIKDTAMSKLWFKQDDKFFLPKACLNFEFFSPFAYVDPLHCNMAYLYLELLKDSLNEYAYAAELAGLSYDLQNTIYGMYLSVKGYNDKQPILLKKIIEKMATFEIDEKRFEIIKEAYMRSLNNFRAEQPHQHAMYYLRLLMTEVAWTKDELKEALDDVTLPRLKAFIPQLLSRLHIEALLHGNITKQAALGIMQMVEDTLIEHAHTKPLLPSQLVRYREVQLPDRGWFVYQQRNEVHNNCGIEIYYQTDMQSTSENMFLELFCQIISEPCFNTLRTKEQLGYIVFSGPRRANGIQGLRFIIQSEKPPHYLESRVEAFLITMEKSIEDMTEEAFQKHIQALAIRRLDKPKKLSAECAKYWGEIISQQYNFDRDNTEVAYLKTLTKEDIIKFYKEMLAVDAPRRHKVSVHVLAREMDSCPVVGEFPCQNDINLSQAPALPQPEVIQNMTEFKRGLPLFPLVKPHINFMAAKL
As to the kind of experiment: biochemical. The conditions noted are these: for IC50: from initial test at 10 uM using insulin (100 nM), read-out: IC50 (summary of results, listed in Table 1); for Ki: substrate recombinant human insulin 50 nM, Ki from IC50 with the Cheng-Prusoff equation. The source says:
The six selected peptide sequences (C7C-1, C7C-2, 12–1, 12–2, 12–3 and 12–4) were synthesized, together with a variety of modifications, yielding a total of 25 peptides (Table 1). For the 12-mer peptides, we synthesized variants of the parent peptides truncated at one or both termini, to test whether the entire sequence was necessary or not, in the hope that shorter, and thus less expensive, sequences might be effective. Other modifications included N-terminal acetylation and C-terminal amidation, included to mimic the charge state of the peptides when incorporated in the phage coat protein (Table 1). To assess the extent to which these peptide sequences inhibit IDE, we quantified their potency in protease activity assays using recombinant human IDE and two different substrates: FRET1, a fluorogenic peptide, and recombinant human insulin.
(§1) IDE activity was quantified by monitoring the degradation of Mca-[…](Dnp) (FRET1, 5 μM), fluoresceinated and biotinylated amyloid ß-protein (FAßB; 500 nM) or recombinant human insulin (50 nM) in PBS supplemented with 0.05% BSA. FRET1 degradation was measured by changes in fluorescence (λex = 340 nm, λem = 420 nm); FAßB degradation was monitored by fluorescence polarization (λex = 488 nm, λem = 525 nm), as described; and insulin degradation was quantified by ELISA. In vitro activity assays incorporated recombinant human IDE (1 nM) purified from bacteria. For quantitation of insulin degradation in primary murine skin fibroblasts, cells (1 x 10^5/well) were plated in 96-well plates and maintained in DMEM supplemented with 10% fetal bovine serum (FBS), 2mM glutamine, penicillin and streptomycin. After addition of insulin (10 nM or 100 nM), samples of conditioned medium were removed daily and quickly frozen, then insulin levels were quantified in parallel by ELISA according to manufacturer’s recommendations (Crystal Chem, Downers Grove, IL, USA). Assessment of the activity of P12-3A against a variety of matrix-metalloproteases was conducted using the Matrix Metalloproteinase (MMP) Inhibitor Profiling Kit, Fluorometric RED (Enzo Life Sciences, Inc., Farmingdale, NY, USA) according to manufacturer’s recommendations using the broad-spectrum MMP inhibitor, NNGH, as a positive control.

Assay [2] concerns the target T1, IDE. In words: biochemical. The conditions noted are these: for IC50: dose-response, FRET1, read-out: IC50s, Mean; for IC50 <500 uM?: initial test at 500 uM; for remaining activity at 500 µM: individual replicates, read-out: Percent activity at 500 uM, Replicate 1-4; for Ki: substrate FRET1 5 μM, Ki from IC50 with the Cheng-Prusoff equation, read-out: Ki FRET1. As to the method:
The six selected peptide sequences (C7C-1, C7C-2, 12–1, 12–2, 12–3 and 12–4) were synthesized, together with a variety of modifications, yielding a total of 25 peptides (Table 1). […] Other modifications included N-terminal acetylation and C-terminal amidation, included to mimic the charge state of the peptides when incorporated in the phage coat protein (Table 1).
as §1, with “FRET1 degradation was measured by changes in fluorescence (λex = 340 nm, λem = 420 nm); FAßB degradation was monitored by fluorescence polarization (λex = 488 nm, λem = 525 nm), as described; and insulin degradation was quantified by ELISA.” left out

Assay [3] addresses T1, IDE. As to the kind of experiment: Vulnerability of peptides to degradation by IDE: 0 vs 4 h pre-incubation, then FRET1 assay. The assay is classed as biochemical. The conditions noted are these: for Ki: Cheng-Prusoff from IC50, FRET1 KM 10 uM, substrate 5 uM; for remaining activity at 0.12207 µM / remaining activity at 0.488281 µM / remaining activity at 1.95312 µM / remaining activity at 7.8125 µM / remaining activity at 31.25 µM / remaining activity at 125 µM / remaining activity at 500 µM: 4 h, relative to DMSO-only controls, read-out: Percent Activity (normalized initial velocity of FRET1 hydrolysis); for remaining activity at 0.12207 µM: Cmpd 0.12207 uM; for remaining activity at 0.488281 µM: Cmpd 0.488281 uM; for remaining activity at 1.95312 µM: Cmpd 1.95312 uM; for remaining activity at 7.8125 µM: Cmpd 7.8125 uM; for remaining activity at 31.25 µM: Cmpd 31.25 uM; for remaining activity at 125 µM: Cmpd 125 uM; for remaining activity at 500 µM: Cmpd 500 uM; for IC50: FRET1 assay. As to the method: as §1, with “FRET1 degradation was measured by changes in fluorescence (λex = 340 nm, λem = 420 nm); FAßB degradation was monitored by fluorescence polarization (λex = 488 nm, λem = 525 nm), as described; and insulin degradation was quantified by ELISA.” left out

Where [4] appears, read: initial test, percent of initial velocity relative to DMSO-only controls.
[5] abbreviates: 4-hr incubation, individual runs.
The mark [6] stands for this setting: 0-hr incubation (immediately after combining enzyme and peptide), individual runs, read-out: IC50s.
[7] abbreviates: 4-hr incubation, individual replicates, read-out: IC50s.
Setting [8] is: 4-hr incubation, mean of 2 replicates, read-out: IC50s, Mean.

Several values for one entry are separate records, joined by “and”; a condition that tells them apart may be missing. Equal values may be shown once. Ends that are not written are not given here. Where only a bound is given, the exact number is not on record here.

Consider `CC(=O)N[C@@H](Cc1c[nH]c2ccccc12)C(=O)N[C@@H](CC(=O)O)C(=O)N[C@@H](Cc1ccccc1)C(=O)N[C@@H](CCCNC(=N)N)C(=O)N[C@@H](CCC(N)=O)C(=O)N[C@@H](Cc1c[nH]c2ccccc12)C(=O)N[C@@H](Cc1c[nH]c2ccccc12)C(=O)N[C@@H](CCC(N)=O)C(N)=O` [P12-1D], for which, in assay [1], the IC50 was more than 10 µM and the Ki was more than 10 µM. For the same compound, in assay [2], the IC50 was 210 µM, the “IC50 <500 uM?” value was “YES” and the Ki is more than 100 µM. Moreover, the remaining activity at 500 µM in assay [2] (setting [4]) was 13.4%. Besides, the remaining activity at 500 µM in assay [2] (judged as IC50 <100 uM?) turned out to be 61.2%. Further, the Ki in assay [3] (4-hr incubation) was determined as 515 µM. Further, in assay [3] (setting [5]), the remaining activity at 0.12207 µM was found to be 102%, the remaining activity at 0.488281 µM was determined as 91.2%, the remaining activity at 1.95312 µM came out at 99.3% and the remaining activity at 7.8125 µM was found to be 97.1%. For the same compound, in assay [3] (setting [5]), the remaining activity at 31.25 µM was found to be 90.2%, the remaining activity at 125 µM came to 47.6% and the remaining activity at 500 µM stood at 20.6%. In assay [3] (setting [6]), the IC50 was 138 µM and 282 µM. Further, the IC50 in assay [3] (setting [7]) was 791 µM and 755 µM. In assay [3] (setting [8]), the IC50 was determined as 773 µM.

Turning to Ac-FRQWWQPS [P12-1C], in assay [1], the IC50 was more than 10 µM and the Ki is more than 10 µM. Also, in assay [2], the IC50 turned out to be 208 µM, the “IC50 <500 uM?” value is recorded as “YES” and the Ki stood at 139 ± 21 µM. Further, the remaining activity at 500 µM in assay [2] (setting [4]) was found to be 12.6%. Besides, the remaining activity at 500 µM in assay [2] (judged as IC50 <100 uM?) was 33.8%. The compound further yielded a Ki in assay [3] (0-hr incubation) of 139 µM. In assay [3] (4-hr incubation), the affinity corresponds to a Ki of 327 µM. Moreover, in assay [3] (setting [5]), the remaining activity at 0.12207 µM was determined as 100%, the remaining activity at 0.488281 µM was determined as 104%, the remaining activity at 1.95312 µM was 105% and the remaining activity at 7.8125 µM came out at 104%. For the same compound, in assay [3] (setting [5]), the remaining activity at 31.25 µM turned out to be 78.2%, the remaining activity at 125 µM was found to be 24.3% and the remaining activity at 500 µM was determined as 2.79%. In addition, in assay [3] (setting [6]), the IC50 is 150 µM and 254 µM and 220 µM. In assay [3] (setting [7]), the IC50 is 482 µM and 500 µM. In addition, the IC50 in assay [3] (setting [8]) was 491 µM.
